Test results from patent publication US4129591A, “Ureida-phenylenebis(substituted imino)multianionic substituted dinaphthalene sulfonic acids and salts” (American Cyanamid Company, priority 1976, dated 1978).
Structures can show the parent of a compound that is named as a salt.

How the values were obtained:
whole complement = assay: Complement level reduction in dosed guinea pigs (capillary tube assay); type: in vivo; settings: guinea pig, 200 mg/kg
complement system = settings: literature; cited from earlier work
[1] = system: shunt pathway activated by cobra venom factor; assay: Test, Code 036 (C-Shunt inhibitor), lysis of human erythrocytes in autologous serum; type: cell-based
Description: (§1) An active inhibitor protects C2 from C1 and C4; (ii) Test, Code 035 (C3-C9 inhibitor) -- This test determines the ability of the late components of human complement (C3-C9) to lyse EAC 142 in the presence of appropriate dilutions of the test compound. An active inhibitor protects EAC 142 from lysis by human C3-C9; (iii) Test, Code 036 (C-Shunt inhibitor) -- In this test human erythrocytes rendered fragile are lysed in autologous serum via the shunt pathway activated by cobra venom factor in the presence of appropriate dilutions of the test compound. Inhibition of the shunt pathway results in failure of lysis; (iv) Forssman Vasculitis Test -- Here, the well known complement dependent lesion, Forssman vasculitis, is produced in guinea pigs by intradermal injection of rabbit anti-Forssman antiserum. The lesion is measured in terms of diameter, edema and hemorrhage and the extent to which a combined index of these is inhibited by prior intraperitoneal injection of the test compound at 200 mg/kg is then reported, unless otherwise stated; (v) Forssman Shock Test -- Lethal shock is produced in guinea pigs by an i.v. injection of anti-Forssman antiserum and the harmonic mean death time of treated guinea pigs is compared with that of simultaneous controls; (vi) Complement Level Reduction Test -- In this test, the above dosed guinea pigs, or others, are bled for serum and the complement level is determined in undiluted serum by the capillary tube method of U.S. Pat. No. 3,876,376 and compared to undosed control guinea pigs; and (vii) Cap 50 Test -- Here, appropriate amounts of the test compound are added to a pool of guinea pig serum in vitro, after which the undiluted serum capillary tube assay referred to above is run. The concentration of compound inhibiting 50% is reported.

[2] = system: late components of human complement (C3-C9); assay: Test, Code 035 (C3-C9 inhibitor), lysis of EAC 142; type: cell-based; settings: human C3-C9, EAC 142, in vitro
Description: as §1

[3] = system: hereditary angioneurotic edema; settings: New England Journal of Medicine, 286, 808-812 (1972); cited from earlier work
activated human C1 = target: T1, activated human C1 (Homo sapiens, UniProt P09871); assay: Test, Code 026 (C1 inhibitor); type: biochemical; settings: human C1, in vitro
T1 construct: fluid-phase human C2 cleavage in presence of C4
Description: An active inhibitor protects C2 from C1 and C4; (ii) Test, Code 035 (C3-C9 inhibitor) -- This test determines the ability of the late components of human complement (C3-C9) to lyse EAC 142 in the presence of appropriate dilutions of the test compound. An active inhibitor protects EAC 142 from lysis by human C3-C9; (iii) Test, Code 036 (C-Shunt inhibitor) -- In this test human erythrocytes rendered fragile are lysed in autologous serum via the shunt pathway activated by cobra venom factor in the presence of appropriate dilutions of the test compound. Inhibition of the shunt pathway results in failure of lysis; (iv) Forssman Vasculitis Test -- Here, the well known complement dependent lesion, Forssman vasculitis, is produced in guinea pigs by intradermal injection of rabbit anti-Forssman antiserum. […]

T1 sequence (P09871 16-688): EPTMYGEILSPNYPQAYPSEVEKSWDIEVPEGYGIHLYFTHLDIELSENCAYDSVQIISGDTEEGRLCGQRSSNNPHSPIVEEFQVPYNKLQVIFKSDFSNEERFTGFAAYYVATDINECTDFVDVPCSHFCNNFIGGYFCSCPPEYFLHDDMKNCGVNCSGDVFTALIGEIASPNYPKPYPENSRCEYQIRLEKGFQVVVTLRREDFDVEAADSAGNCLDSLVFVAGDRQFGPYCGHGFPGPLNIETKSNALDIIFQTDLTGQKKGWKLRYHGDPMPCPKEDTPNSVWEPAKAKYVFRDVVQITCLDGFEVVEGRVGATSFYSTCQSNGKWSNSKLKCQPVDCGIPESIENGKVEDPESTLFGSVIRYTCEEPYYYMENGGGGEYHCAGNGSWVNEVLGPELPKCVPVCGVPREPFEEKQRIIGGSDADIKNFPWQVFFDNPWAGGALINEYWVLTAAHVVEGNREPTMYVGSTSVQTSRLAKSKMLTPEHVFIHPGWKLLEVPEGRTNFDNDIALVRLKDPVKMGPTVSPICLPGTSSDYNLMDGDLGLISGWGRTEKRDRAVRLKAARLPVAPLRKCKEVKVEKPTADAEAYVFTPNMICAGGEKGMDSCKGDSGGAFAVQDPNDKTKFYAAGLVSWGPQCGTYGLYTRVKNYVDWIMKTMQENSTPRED
T1 sequence (P00736 18-705 partner): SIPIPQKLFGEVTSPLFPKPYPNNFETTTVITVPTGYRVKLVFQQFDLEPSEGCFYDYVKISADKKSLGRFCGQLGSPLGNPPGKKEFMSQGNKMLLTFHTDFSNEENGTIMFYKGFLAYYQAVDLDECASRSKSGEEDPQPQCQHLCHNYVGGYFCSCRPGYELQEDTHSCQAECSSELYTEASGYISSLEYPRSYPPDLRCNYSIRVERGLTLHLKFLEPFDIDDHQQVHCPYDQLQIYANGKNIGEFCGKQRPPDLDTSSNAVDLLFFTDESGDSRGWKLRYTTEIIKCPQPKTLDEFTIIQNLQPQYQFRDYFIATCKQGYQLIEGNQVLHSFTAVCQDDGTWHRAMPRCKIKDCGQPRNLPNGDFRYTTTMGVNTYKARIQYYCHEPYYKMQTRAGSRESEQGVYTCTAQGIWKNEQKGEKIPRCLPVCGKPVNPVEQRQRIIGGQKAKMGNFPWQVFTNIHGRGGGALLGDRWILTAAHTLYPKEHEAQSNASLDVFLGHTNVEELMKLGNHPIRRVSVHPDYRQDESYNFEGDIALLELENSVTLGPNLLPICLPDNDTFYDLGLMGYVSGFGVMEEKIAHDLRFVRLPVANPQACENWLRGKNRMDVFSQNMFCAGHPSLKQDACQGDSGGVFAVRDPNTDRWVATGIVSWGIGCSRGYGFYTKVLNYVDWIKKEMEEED
T1 sequence (P02745 23-245 partner): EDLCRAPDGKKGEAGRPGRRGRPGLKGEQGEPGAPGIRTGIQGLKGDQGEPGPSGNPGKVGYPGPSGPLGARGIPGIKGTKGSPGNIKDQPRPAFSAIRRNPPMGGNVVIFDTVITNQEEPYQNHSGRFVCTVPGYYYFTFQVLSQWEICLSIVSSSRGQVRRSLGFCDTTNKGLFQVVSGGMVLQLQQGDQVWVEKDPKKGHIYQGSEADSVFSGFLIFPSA
T1 sequence (P02746 28-253 partner): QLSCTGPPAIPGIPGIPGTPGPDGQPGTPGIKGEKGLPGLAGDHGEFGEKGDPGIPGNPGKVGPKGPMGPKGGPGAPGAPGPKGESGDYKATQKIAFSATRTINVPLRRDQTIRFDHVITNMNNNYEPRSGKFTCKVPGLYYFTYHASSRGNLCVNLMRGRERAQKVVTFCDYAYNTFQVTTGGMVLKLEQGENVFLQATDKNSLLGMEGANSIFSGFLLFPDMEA
T1 sequence (P02747 29-245 partner): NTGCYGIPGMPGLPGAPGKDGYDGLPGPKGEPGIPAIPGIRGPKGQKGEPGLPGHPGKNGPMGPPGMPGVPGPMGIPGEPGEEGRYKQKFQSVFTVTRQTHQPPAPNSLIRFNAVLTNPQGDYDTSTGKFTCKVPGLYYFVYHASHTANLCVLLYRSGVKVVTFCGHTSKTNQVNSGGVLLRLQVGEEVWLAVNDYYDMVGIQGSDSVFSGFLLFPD

Compound | % change in complement level (whole complement; i.p., time 30) [%] | % change in complement level (whole complement; i.p., time 60) [%] | anticomplementary effect / complement inhibition (complement system) | Shunt Inhibition 036* Wells [1] | use in treatment of hereditary angioneurotic edema [3] | further results
O=C(Nc1cc(C(=O)Nc2ccc(S(=O)(=O)O)c3cc(S(=O)(=O)O)cc(S(=O)(=O)O)c23)cc(C(=O)Nc2ccc(S(=O)(=O)O)c3cc(S(=O)(=O)O)cc(S(=O)(=O)O)c23)c1)Nc1cc(C(=O)Nc2ccc(S(=O)(=O)O)c3cc(S(=O)(=O)O)cc(S(=O)(=O)O)c23)cc(C(=O)Nc2ccc(S(=O)(=O)O)c3cc(S(=O)(=O)O)cc(S(=O)(=O)O)c23)c1 [8,8',8",8"'-[Carbonylbis[imino-5,1,3-benzenetriylbis(carbonylimino)]]tetrakis[1-3,5-naphthalenesulfonic acid] dodecasodium salt] | -98 | -98 | – | – | – | –
heparin | – | – | anticomplementary effect | – | – | –
O=C(Nc1cc(C(=O)Nc2cc(S(=O)(=O)O)cc3cc(S(=O)(=O)O)cc(O)c23)cc(C(=O)Nc2cc(S(=O)(=O)O)cc3cc(S(=O)(=O)O)cc(O)c23)c1)Nc1cc(C(=O)Nc2cc(S(=O)(=O)O)cc3cc(S(=O)(=O)O)cc(O)c23)cc(C(=O)Nc2cc(S(=O)(=O)O)cc3cc(S(=O)(=O)O)cc(O)c23)c1 [4,4',4",4'"-[Carbonylbis[imino-5,1,3-benzenetriylbis(carbonylimino)]]tetrakis[5-hydroxy-2,7-naphthalenedisulfonic acid] octasodium salt] | -69 | -92 | – | +1 Wells | – | % change in complement level (whole complement; i.p., time 120): -98%
O=C(Nc1cc(C(=O)Nc2cc(S(=O)(=O)O)cc3cc(S(=O)(=O)O)ccc23)cc(C(=O)Nc2cc(S(=O)(=O)O)cc3cc(S(=O)(=O)O)ccc23)c1)Nc1cc(C(=O)Nc2cc(S(=O)(=O)O)cc3cc(S(=O)(=O)O)ccc23)cc(C(=O)Nc2cc(S(=O)(=O)O)cc3cc(S(=O)(=O)O)ccc23)c1 [4,4',4",4'"-{Carbonylbis[imino-5,1,3-benzenetriylbis(carbonylimino)]}tetrakis[2,7-naphthalenedisulfonic acid] octasodium salt] | – | – | – | +3 Wells | – | C-Late 035* Wells [2]: +1 Wells; C-Late 035* Wells (class symbol N) [2]: N (N means inactive, O Wells)
NCCCCCC(=O)O [6-aminohexanoic acid] | – | – | – | – | used with success | –
Nc1ccc2cc(S(=O)(=O)O)cc(O)c2c1N=Nc1ccc(NC(=O)Nc2ccc(N=Nc3c(N)ccc4cc(S(=O)(=O)O)cc(O)c34)c(S(=O)(=O)O)c2)cc1S(=O)(=O)O [chlorazol fast pink, 3,3-(carbonyldiimino)bis[6-(2-amino-8-hydroxy-6-sulfo-1-naphthylazo)benzenesulfonic acid], tetrasodium salt] | – | – | anticomplementary effect | – | – | –
O=C(Nc1cc(C(=O)Nc2cc(S(=O)(=O)O)cc3cc(S(=O)(=O)O)cc(S(=O)(=O)O)c23)cc(C(=O)Nc2cc(S(=O)(=O)O)cc3cc(S(=O)(=O)O)cc(S(=O)(=O)O)c23)c1)Nc1cc(C(=O)Nc2cc(S(=O)(=O)O)cc3cc(S(=O)(=O)O)cc(S(=O)(=O)O)c23)cc(C(=O)Nc2cc(S(=O)(=O)O)cc3cc(S(=O)(=O)O)cc(S(=O)(=O)O)c23)c1 [8,8',8",8'"-[Carbonylbis[imino-5,1,3-benzenetriylbis(carbonylimino)]]tetrakis[1,3,6-naphthalenetrisulfonic acid]dodecasodium salt] | -88 | -85 | – | +5 Wells | – | C1 026* Wells (activated human C1): +9 Wells; C-Late 035* Wells [2]: +3 Wells; % change in complement level (whole complement; i.p., time 120): -92%; % change in complement level (whole complement; i.v., time 2): -98%; % change in complement level (whole complement; i.v., time 30): -97%; % change in complement level (whole complement; i.v., time 120): -89%
Cc1ccc(C(=O)Nc2ccc(S(=O)(=O)O)c3cc(S(=O)(=O)O)cc(S(=O)(=O)O)c23)cc1NC(=O)c1cccc(NC(=O)Nc2cccc(C(=O)Nc3cc(C(=O)Nc4ccc(S(=O)(=O)O)c5cc(S(=O)(=O)O)cc(S(=O)(=O)O)c45)ccc3C)c2)c1 [Suramin] | – | – | competitive inhibitor of the complement system | – | used with success | –
NC[C@H]1CC[C@H](C(=O)O)CC1 [trans-4-(aminomethyl)-cyclohexanecarboxylic acid] | – | – | – | – | used with success | –
